The values that follow come from patent US8906848B2, “Aureobasidin derivatives and methods of synthesis” (priority 2011, dated 2014).

Data set [1] in a line: Pharmacokinetic study in mice, oral gavage, plasma by HPLC-MS. To be noted: single 200 mg/kg oral gavage. The format is in vivo. Here is the method: Referring to FIG. 5, mice were administered a single 200 mg/kg bolus dose of 3-pyridyl-mPhe^4-AbA (diamonds) or AbA (squares), by oral gavage. Blood was collected a timed intervals after administration of the drug and analyzed for compound content by HPLC-MS.

Data set [2] concerns Candida species, including C. albicans. To be noted: virtually all Candida species; cited from earlier work.
The subject of another data set is C. albicans. Kind of data set: MIC, broth dilution CLSI M38-A2 with YPD medium (Table 2). In kind it is cell-based. Here is the method: (§1) The activities of several exemplary compounds of the present invention were assayed according to the CLSI standard M38-A2 titled “Reference Method for Broth Dilution Antifungal Susceptibility Testing of Filamentous Fungi”. However, the RPMI-1640 broth is substituted for a YPD medium formulated according to the following steps: […]
(§2) 1. Dissolve 10 g of BactoYeast extract in 500 ml water
(§3) 2. Dissolve 20 g of BactoPeptone in the above solution
(§4) 3. Dissolve 20 g Dextrose in the above solution* *Ordinary table sugar (sucrose) substituted for dextrose routinely.
(§5) 4. q.s. to 1000 ml with water
For orientation: Dilution methods test growth across graded concentrations, often in twofold steps.

Another data set has as its system Candida albicans SC5413. Kind of data set: Candidiasis model in immunosuppressed mice, mortality. The format is in vivo. Here is the method: Referring to FIG. 6, Mice, immunosuppressed with cyclophosphamide, were inoculated with 8 log 10 CFU Candida albicans SC5413 and dosed (following inoculation) with 3-pyridyl-mPhe^4-AbA (or a control antibiotic) orally, BID, for four consecutive days. Efficacy was determined by enumerating mortality.

In data set [3] the test system is Cryptococcus species, including C. neoformans. Conditions: most Cryptococcus species; cited from earlier work.
For another data set, the system named is Aspergilli, A. fumigatus. Conditions: most Aspergilli, most notably A. fumigatus; cited from earlier work.
For data set [4] the following is noted: animals and humans; cited from earlier work.
Data set [5] deals with Fusarium oxysporum 0893 (ATCC48112). Kind of data set: MIC, antifungal spectrum (Table 3). The format is cell-based. To be noted: at 96 hr. On the procedure: as §1, §2, §3, §4, §5
For data set [6], the system named is Trychophyton rubrum 5279 (ATCC MYA-4438). Kind of data set: MIC, antifungal spectrum (Table 3). In kind it is cell-based. To be noted: at 72 hrs. On the procedure: as §1, §2, §3, §4, §5
Data set [7] has as its system Trychophyton mentagrophytes 5278 (ATCC MYA-4439). Kind of data set: MIC, antifungal spectrum (Table 3). Conditions: at 96 hrs. In kind it is cell-based. Here is the method: as §1, §2, §3, §4, §5
Data set [8] has as its system Sporothrix schenkii 892 (ATCC14284). Kind of data set: MIC, antifungal spectrum (Table 3). In kind it is cell-based. Conditions: at 96 hrs. Here is the method:
as §1, §2, §3, §4, §5

The test system of the next data set is A. fumigatus. Kind of data set: MIC, broth dilution CLSI M38-A2 with YPD medium (Table 2). In kind it is cell-based. Conditions: compound purity ~85%. On the procedure:
as §1, §2, §3, §4, §5

[9] abbreviates: YPD medium, compound purity ~85%.

Where two headings read alike, the source gives them in different places. Starred links: 1 amine or outer side, 2 acyl side, 3 side chain; linkers in the order of their positions; H or OH if unused. Non-standard residues stand in square brackets, D forms with d. Residues, ends and D or L forms follow the SMILES beside them. NMePhe(3-(3-pyridyl)) = CN[C@@H](Cc1cccc(-c2cccnc2)c1)C(=O)O; NMePhe(3-Ph) = CN[C@@H](Cc1cccc(-c2ccccc2)c1)C(=O)O; X2 = CN([C@@H](Cc1cccc(B(O)O)c1)C(=O)[*:2])[*:1]; NMePhe(3-Br) = CN[C@@H](Cc1cccc(Br)c1)C(=O)O; Phe(3-Br) = N[C@@H](Cc1cccc(Br)c1)C(=O)O; X1 = CC[C@@H](C)[C@@H](O[*:1])C(=O)[*:2]; NMeVal(β-OH) = CN[C@H](C(=O)O)C(C)(C)O; aIle = CC[C@@H](C)[C@H](N)C(=O)O; NMeV = CN[C@H](C(=O)O)C(C)C

`CCC(C)[C@@H]1NC(=O)[C@@H]2CCCN2C(=O)[C@H](Cc2ccccc2)N(C)C(=O)[C@H](Cc2ccccc2)NC(=O)[C@H](C(C)C)N(C)C(=O)[C@@H](C(C)CC)OC(=O)C(C(C)(C)O)N(C)C(=O)[C@H](CC(C)C)NC(=O)[C@H](C(C)C)N(C)C1=O` (stereo in doubt) [AbA (native), Aureobasidin A]: the “plasma concentration trend at the end of the 12 hour experiment” value in data set [1] is recorded as “decreasing”. The “efficacy against Candida species” value in data set [2] was “very efficacious”. Further, the “MIC for C. albicans” value against C. albicans (setting [9]) is <0.05 µg/mL. In the data set with Candida albicans SC5413 (cyclophosphamide-immunosuppressed mice, oral, BID, four consecutive days, mortality), the ED50 entry is on record as “about 25 mg/kg”. For the same compound, the “efficacy against Cryptococcus species” value in [3] is on record as “efficacious”. In addition, the “activity towards Aspergilli” value in the data set with Aspergilli, A. fumigatus is listed as “little activity”. The tolerability entry in data set [4] is recorded as “very well tolerated”.
As for `CC[C@@H](C)[C@@H]1NC(=O)[C@@H]2CCCN2C(=O)[C@H](Cc2cccc(-c3cccnc3)c2)N(C)C(=O)[C@H](Cc2ccccc2)NC(=O)[C@H](C(C)C)N(C)C(=O)[C@@H]([C@H](C)CC)OC(=O)[C@H](C(C)(C)O)N(C)C(=O)[C@H](CC(C)C)NC(=O)[C@H](C(C)C)N(C)C1=O` [3-pyridyl-mPhe^4-AbA] (cyclo([X1][NMeV]F[NMePhe(3-(3-pyridyl))]P[aIle][NMeV]L[NMeVal(β-OH)])), the “bioavailability and/or clearance as compared to the native drug” value in [1] was “enhanced bioavailability and/or a slower clearance”. In data set [1], the “plasma concentration trend at the end of the 12 hour experiment” value is reported as “still be increasing”. The “plasma concentrations compared with the same dose of native AbA” value in data set [1] (same vehicle) is given as “significantly higher plasma concentrations”. For the same compound, the MIC was >64 at 96 hr μg/ml in data set [5], 2 at 72 hrs μg/ml in data set [6], 0.5 at 96 hrs μg/ml in data set [7] and >64 at 96 hrs μg/ml in data set [8]. For the same compound, the “MIC for C. albicans” value against C. albicans was <0.05 µg/mL. Moreover, the “ED50 of native AbA relative to that of 3-pyridyl-mPhe^4-AbA” value in the data set on Candida albicans SC5413 (Candidiasis model, mice, oral BID four days) is given as “almost four times higher”.
Consider `CC[C@@H](C)[C@@H]1NC(=O)[C@@H]2CCCN2C(=O)[C@H](Cc2cccc(B(O)O)c2)N(C)C(=O)[C@H](Cc2ccccc2)NC(=O)[C@H](C(C)C)N(C)C(=O)[C@@H]([C@H](C)CC)OC(=O)[C@H](C(C)(C)O)N(C)C(=O)[C@H](CC(C)C)NC(=O)[C@H](C(C)C)N(C)C1=O` [B(OH)2-mPhe^4-AbA] (cyclo([X1][NMeV]F[X2]P[aIle][NMeV]L[NMeVal(β-OH)])), for which the “MIC for C. albicans” value against C. albicans was <0.05 µg/mL.
As to `CC[C@@H](C)[C@@H]1NC(=O)[C@@H]2CCCN2C(=O)[C@H](Cc2cccc(Br)c2)N(C)C(=O)[C@H](Cc2cccc(Br)c2)NC(=O)[C@H](C(C)C)N(C)C(=O)[C@@H]([C@H](C)CC)OC(=O)[C@H](C(C)(C)O)N(C)C(=O)[C@H](CC(C)C)NC(=O)[C@H](C(C)C)N(C)C1=O` [Br-Phe^3-Br-mPhe^4-AbA] (cyclo([X1][NMeV][Phe(3-Br)][NMePhe(3-Br)]P[aIle][NMeV]L[NMeVal(β-OH)])), in the data set on C. albicans, the “MIC for C. albicans” value was determined as 5 µg/mL.
On the same count and under the same terms, for `CC[C@@H](C)[C@@H]1NC(=O)[C@@H]2CCCN2C(=O)[C@H](Cc2cccc(-c3ccccc3)c2)N(C)C(=O)[C@H](Cc2ccccc2)NC(=O)[C@H](C(C)C)N(C)C(=O)[C@@H]([C@H](C)CC)OC(=O)[C@H](C(C)(C)O)N(C)C(=O)[C@H](CC(C)C)NC(=O)[C@H](C(C)C)N(C)C1=O` [Phenyl-mPhe^4-AbA] (cyclo([X1][NMeV]F[NMePhe(3-Ph)]P[aIle][NMeV]L[NMeVal(β-OH)])) the value was <0.05 µg/mL.
For Boronate-mPhe^4-AbA, in the data set on C. albicans (setting [9]), the “MIC for C. albicans” value was <0.5 µg/mL. Besides, the “MIC for A. fumigatus” value in the data set with A. fumigatus worked out at 10 µg/mL.
On the same counts, the results for Br-mPhe^4-AbA are 0.031 µg/mL and 2.5 µg/mL.
For the compound I-mPhe^4-AbA, the “MIC for C. albicans” value against C. albicans (setting [9]) was 2.5 µg/mL. Also, in the data set on A. fumigatus, the “MIC for A. fumigatus” value is >5 µg/mL.
Take MeO-φ-mPhe^4-AbA: in the data set with C. albicans (setting [9]), the “MIC for C. albicans” value is 5 µg/mL.
